Measured values reported in article PMC3154276, “The Effect of the Potential PhoQ Histidine Kinase Inhibitors on Shigella flexneri Virulence” (PLoS ONE, 2011).

How the values were obtained:
[1] = Cytotoxicity MTT assay on Vero cells; type: cell-based; settings: African green monkey, highest concentration tested 200 µmol/L, read-out: CC50 on Vero cell
Procedure: The cytotoxicity of each potential PhoQ inhibitor towards a Vero cell line was analyzed by the traditional MTT assay. The CC50 values of all four compounds were higher than 200 µmol/L, the highest tested concentration of potential PhoQ inhibitors. As a control, an equal concentration of DMSO (0.1%) was added to a well of Vero cells, and no obvious cytotoxicity was observed (Table 1).
Cytotoxicity of the potential PhoQ inhibitors on cultured Vero cells was measured by using the Cell Proliferation Kit I (MTT) (Roche, Indianapolis, USA). An equal concentration of DMSO (0.1%) in the medium was used as a negative control. The cytotoxicity assay was performed in triplicate for each potential PhoQ inhibitor, and the assay for each potential PhoQ inhibitor was repeated twice. The results were converted to percentage of the control (cells only containing 0.1% DMSO) and CC50 (concentrations that produce a 50% cytotoxicity effect on Vero cell) of each potential PhoQ inhibitors was calculated using the Origin v7.0 software (OriginLab, Northampton, USA).

S. flexneri 2a 301 = assay: Gentamicin protection assay, HeLa cell invasion by Sf301; type: cell-based; settings: bacteria treated 8 h, Figure S4
Procedure: Supplementary file pone.0023100.s004.tif: Figure S4 The effects of potential PhoQ inhibitors on cell invasion of Shigella Sf 301. […] The bacteria were treated with each of the four potential PhoQ inhibitors grown for 8 h. Then the bacteria were inoculated with HeLa cells for 60 minutes prior to the addition of gentamicin to kill extracellular bacteria. After the incubation, the HeLa cells in each well were lysed in 1 ml of PBS containing 0.1% Triton X-100. The lysates were diluted and plated onto LB agar plates in triplicate. Colonies grown on LB plates were counted. The results of the assays were expressed as the number of bacteria recovered from gentamicin-treated cells divided by the number of inoculated bacteria added to the cell. Values are means ± standard deviations from 6 independent wells. *p<0.01 vs. Sf301. […] (TIF) Click here for additional data file.

SF-PhoQc = biological target: T1, SF-PhoQc (Shigella flexneri, UniProt Q83RR1); assay: Luminescent Kinase Assay of SF-PhoQc; type: biochemical, S. flexneri 2a 301
T1 construct: The amplified DNA segment encodes PhoQ HK amino acids 251–486; made in house; host or cells: E. coli JM109
Procedure: Luminescent Kinase Assay was used to confirm the effects of compounds 1, 2, 3 and 4 on the enzymatic activity of SF-PhoQc. In the Luminescent Kinase Assay, the putative kinase activity of SF-PhoQc protein was measured by quantifying the amount of ATP that remained in solution after the reaction. […] Next, the effect of each compound on the enzymatic activity of SF-PhoQc was measured.
In the Luminescent Kinase assay, reactions were performed in solid black, flat-bottomed 96-well plates. To determine the IC50 of potential PhoQ HK inhibitors, each compound underwent 2-fold serial dilutions with DMSO (0.1%) and was added into the reaction mixture. The final reaction mixture contained 4 µg of purified SF-PhoQc, 40 mmol/L Tris-Cl (pH 7.5), 16 mmol/L MgCl2, 0.8 mmol/L DTT and different concentration of 100, 50, 25, 12.5, 6.25 or 3.125 µmol/L compound, respectively. After incubation at 30°C for 25 minutes, 3 µmol/L ATP was added, and the reaction was incubated at 30°C for another 25 minutes. Next, an equal volume of Luminescent Kinase Reagent was added to each well, mixed and kept at room temperature for 10 minutes before recording the luminescence reading on a Fluoroskan Ascent FL machine (Thermo Scientific, USA). The rate of phosphorylation inhibition by a compound was calculated with the following formula: [drawing 2]
The IC50 value of each compound was determined using the Origin 7.0 software (OriginLab, Northampton, USA).

T1 sequence (Q83RR1 251-486): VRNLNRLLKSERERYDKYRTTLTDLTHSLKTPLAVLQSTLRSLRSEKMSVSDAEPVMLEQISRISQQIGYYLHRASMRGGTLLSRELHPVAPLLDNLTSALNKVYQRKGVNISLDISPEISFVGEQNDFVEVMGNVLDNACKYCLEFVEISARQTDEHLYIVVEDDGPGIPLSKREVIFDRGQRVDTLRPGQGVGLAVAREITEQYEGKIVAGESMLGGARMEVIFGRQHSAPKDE

SMILES	CC50 [1] [µM]	effect on HeLa cell invasion ability of Sf301 (S. flexneri 2a 301)	IC50 (SF-PhoQc) [µM]
O=C(Nc1ccc(C2(c3cccc(NC(=O)c4cccc5ccccc45)c3)c3ccccc3C(=O)c3ccccc32)cc1)c1ccc2ccccc2c1 [Compound 1]	> 200	can inhibit	69.37 ± 0.56
CCOc1ccccc1-c1cc(C(=O)N/N=C/c2ccc(OCc3ccccc3)c(OC)c2)c2ccccc2n1 [Compound 2]	> 200	can inhibit	48.9 ± 14.7
O=C(O)c1ccc(Cl)c(-c2ccc(/C=N/NC(=O)c3ccc(Br)cc3)o2)c1 [Compound 3]	> 200	can inhibit	7.99 ± 5.61
O=C(O)c1cc(-c2ccc(-c3ccccc3Cl)o2)nc2ccc3ccccc3c12 [Compound 4]	> 200	no effect	27.2 ± 15.4
